Measurements taken from patent US20230134843A1, “TREATMENT OF STEM CELL DEFICIENCY” (OSPEDALE SAN RAFFAELE S.R.L., priority 2020, published 2023).

How the values were obtained:
mTOR pathway = assay: Western blot of P70S6 and pP70S6 in corneal epithelium, disepithelization model (Example 1); type: in vivo, mice
Procedure: (§1) Eight-week-old C57BL6/N (Charles River, Calco, Italy) (WT mice, n=8) and B6.Cg-Tac1tm1Bbm/J (Jackson Laboratories, Bar Harbor, Me., USA) (TAC1-KO mice, n=8) male mice were used in all experiments. Each animal was anesthetized with intraperitoneal injection of tribromoethanol (250 mg/kg) and a topical anesthetic was applied to their ocular surface prior to the surgical procedure. Disepithelization was performed based on the model previously described, using a blunt spatula to scrap the entire corneal epithelium from limbus to limbus. After wounding, eyes were treated with ophthalmic moxifloxacin 1 time/day for 1 week to […]. Fourteen days after disepithelization mice were euthanized using carbon dioxide inhalation and subsequent cervical dislocation. Corneas were collected for immunostaining and western blot analysis. All experimental protocols were approved by the Animal Care and Use Committee of the Istituto di Ricovero e cura a Carattere Scientifico San Raffaele Scientific Institute, in accordance with the ARVO Statement for the Use of Animals in Ophthalmic and Vision Research.
To evaluate the pharmacological inhibition of Substance P, an additional group of mice (WT-FOSA, n=6) received Fosaprepitant 10 mg/mL (IVEMEND, Merck Sharp & Dohme Ltd., Hoddes-don, UK) dissolved in a total volume of 10 μL phosphate-buffered saline (PBS, Sigma-Aldrich, St. Louis, Mo., USA) or 10 μL of vehicle as control, topically four times a day in both eyes for 14 days. The treatments started 1 day after corneal dispepithelization.
(§2) For Western Blot analysis, corneal epithelium was isolated after 30 minutes of EDTA treatment (Sigma-Aldrich Corp., St. Louis, Mo., USA) at 37° C. […] Bands were quantified using Image Lab™ software (Version 6.0.1, Bio-Rad Laboratories, Hercules, Calif., USA).
(§3) The expression of p70 S6 Kinase (P70S6), phospho-p70 S6 Kinase (pP70S6), and phospho-histone 2-AX (γH2AX) was evaluated by Western Blot, as previously described in section 2.9. […] Bands were quantified using Image J software (National Institutes of Health, Bethesda, Md., USA).

γH2AX = assay: Western blot of γH2AX as senescence marker in corneal epithelium, disepithelization model (Example 1); type: in vivo, mice
Procedure: as §1, with “All experimental protocols were approved by the Animal Care and Use Committee of the Istituto di Ricovero e cura a Carattere Scientifico San Raffaele Scientific Institute, in accordance with the ARVO Statement for the Use of Animals in Ophthalmic and Vision Research.” left out
as §2, §3

[1] = Fosaprepitant 10 mg/mL (WT-FOSA), western blot
[2] = Fosaprepitant 10 mg/mL topically four times a day for 14 days (WT-FOSA), p<0.05

C[C@@H](O[C@H]1OCCN(Cc2nc(=O)n(P(=O)(O)O)[nH]2)[C@H]1c1ccc(F)cc1)c1cc(C(F)(F)F)cc(C(F)(F)F)c1 [Fosaprepitant, [3-{[(2R,3S)-2-[(1R)-1-[3,5-bis(trifluoromethyl)phenyl]ethoxy]-3-(4-fluorophenyl)morpholin-4-yl]methyl}-5-oxo-2H-1,2,4-triazol-1-yl]phosphonic acid]
pP70S6 expression compared to WT (in words) (mTOR pathway; [1]): significant decrease | ratio between pP70S6 and P70S6 expression (mTOR pathway activation) compared to WT (mTOR pathway; Fosaprepitant 10 mg/mL topically four times a day for 14 days (WT-FOSA)): significant decrease | decrease in pP70S6 expression compared to WT (mTOR pathway; [2]): 38% | H2AX expression in comparison to WT (in words) (γH2AX; [1]): decreased | decreased γH2AX expression in comparison to WT (γH2AX; [2]): 26%
